The values that follow come from publication PMC9692552, “Activity and Synergy of Cu-ATCUN Antimicrobial Peptides” (International Journal of Molecular Sciences, 2022).

Like-named read-outs stand apart in the source and are kept apart here. Ends that are not written are not given here.

The conditions of data set [1]: in SDS, as previously reported, cited from earlier work. The text has this: Table 1 SMAP-29 derivatives used in this study and others with sequences and defining characteristics. ^a Estimated charge calculated from Innovagen’s peptide property calculator. ^b The helical activity of peptides as previously reported in the referenced manuscripts. ND: not determined. | column: % Helical (SDS) ^b

Data set [2] relates to MRSA 43300. Briefly: FIC of peptide pairs (two-way dilution, 96-well plate). The settings on record: single peptide on the FIC plate. The class given is cell-based, S. aureus. The procedure: (§1) Determining MIC values informed decisions on testing peptides in combination. Fractional inhibitory concentrations determine the ability of test articles to act in concert against a pathogen. FIC determination is experimentally similar to MIC determination, except one test article is diluted down the wells and another is diluted across the wells of the 96-well plate in order to test the synergism of two peptides. […] Synergy is defined as an FIC of less than or equal to 0.5, meaning there is a four-fold reduction in the concentration of each peptide required for inhibition. Any number above 4 indicates a deleterious interaction that reduces the effectiveness of each peptide, and a value between 0.5 and 1 can be considered additive (Equation (2)).
(§2) Fractional inhibitory concentrations (FICs) were determined in a manner similar to MIC determinations but with serial dilutions of two peptides running both horizontally and vertically across the 96-well plate. Determination of the FIC can be seen in Equation (2), where FIC is the fractional inhibitory concentration, [A] is the concentration of substrate A at MIC in combination, [B] is the concentration of substrate B at MIC in combination, and MICA and MICB are the MIC of substrate A and substrate B, respectively. FIC = fractional inhibitory concentration, [A] = concentration of A at MIC in combination, [B] = concentration of B at MIC in combination, MICA = minimum inhibitory concentration of A, and MICB = minimum inhibitory concentration of B. When FIC ≤ 0.5 the results are synergistic. If FIC > 4, the results are antagonistic, and when FIC > 0.5, the results are indifferent or additive. (2) FIC=[A]/MICA+ [B]/MICB

Data set [3] concerns E. coli 25922. The settings on record: single peptide on the FIC plate, cited from earlier work. The text has this: Figure 6 Summary of peptide interactions in E. coli 25922 from data presented in Results and Supplemental Material. Synergistic (or non-synergistic) interactions for CP10A, TempL, OV3-00 and OV3-01 with other peptides are grouped as shown. Parental and ATCUN derivatives are outlined in the same shape with the average FIC value shown in parentheses. TEXT PRINTED IN THE PICTURE: Sub5: E. coli 25922, CP10A, Synergistic: (0.4); E. coli 25922, TempL, Additive/Indifferent: (1) | Sub5-01: E. coli 25922, CP10A, Synergistic: (0.42); E. coli 25922, TempL, Additive/Indifferent: (0.78) | Mag2-01: E. coli ... || page 3: For Tables S3-S10: FIC Index = [A]/[MICA] + [B]/[MICB], where [A] and [B] are the concentrations of respective peptides at which no growth was observed when dosed in combination, and [MICA] and [MICB] are the concentrations where no growth was observed when dosed separately. The data from each experiment repeated in duplicate or triplicate is shown and bolded data in the final row is the average FIC value. Error is reported as the standard deviation of the mean. Table S3. FIC values for Interactions of CP10A and TempL in E. coli 25922. * Previously reported data from reference for ... || page 4: Table S4. FIC values for the non-ATCUN containing parental peptides in E. coli 25922. A CP10A CP10A CP10A TempL TempL TempL TempL B Sub5 13 Mag2 OV3-00 Sub5 TRP Mag2 OV3-00 [A] 2/4/4 2/2/1 2/2/0.5 2/2/2 1/1/1 0.25/1/2 2/2/2 MICA 16/16/16 4/4/2 4/4/4 4/4/4 2/4/2 4/4/4 16/16/16 [B] 1/0.5/0.25 2/2/2 0.5/1/1 4/4/4 4/4/4 4/2/0.125 4/1/1 MICB 4/2/4 4/4/4 2/2/2 8/8/8 8/8/8 8/8/8 8/2/2 FIC 0.375/0.328/0.5 1/1/1 0.75/1/0.625 1/1/1 1/0.75/1 0.56/0.5/0.52 0.625/0.625/0.625 FICAvg 0.40 ± 0.04 1 0.78 ± 0.2 1 0.9 ± 0.14 0.53 ± 0.03 0.625 Table S5. FIC Values for ATCUN peptide derivatives in MRSA 433 ...

The subject of data set [4] is A. baumannii BAA747. The settings on record: cited from earlier work. The text has this: (§3) Table 2 MIC Values (µM) for SMAP-29 Derivatives. * Previously reported data from reference r comparison. | column: OV3 *; Cu-1 *; Cu-2 *; Cu-3 *; Cu-4 * || Table 4 MIC values for antimicrobial peptides utilized in this study. MIC values for a variety of the presented peptides have been previously determined in alternative conditions; values here are the result of experimental efforts to determine MICs under the conditions utilized for further study of FIC potential, with the exception of Sub5 and Sub5-01, previously characterized in our laboratory, w | column: Sub5; Sub5-01

In the next data set the test system is E. faecium 700221 (VRE). The settings on record: cited from earlier work.
Text: as §3

Data set [5] deals with E. coli 25922. Particulars: cited from earlier work.
Text: as §3

The next data set deals with S. aureus 43300 (MRSA). The settings on record: cited from earlier work.
Text: as §3

In the next data set the test system is K. pneumoniae 700603. Particulars: cited from earlier work.
Text: as §3

Another data set relates to P. aeruginosa 27583. The settings on record: cited from earlier work.
Text: as §3

Data set [6] concerns E. coli 25922. Briefly: FIC of peptide pairs (two-way dilution, 96-well plate). In kind it is cell-based, Escherichia coli. The settings on record: single peptide on the FIC plate. The procedure:
as §1, §2

Data set [7] deals with MRSA 43300. Set-up: method as in ref [13] of the supplement ([11] in main text). The settings on record: single peptide on the FIC plate, cited from earlier work.
In data set [8] the test system is A. baumannii BAA747. Set-up: method as in ref 13 of the supplement ([11] in main text). Particulars: Acinetobacter baumannii, single peptide on the FIC plate, ref 13 of the supplement ([11] in main text), cited from earlier work.
Where [9] appears, read: replicate 1, ref [13] of the supplement ([11] in main text).
Where [10] appears, read: replicate 2, ref [13] of the supplement ([11] in main text).
Where [11] appears, read: replicate 3, ref [13] of the supplement ([11] in main text).
Setting [12] is: taken from earlier work, ref [7].
Where [13] appears, read: P. aeruginosa 27583, taken from earlier work, ref [7].
[14] abbreviates: previously reported data, ref [8].
Where [15] appears, read: P. aeruginosa (27583), previously reported data, ref [8].

As a reminder, the MIC is the lowest concentration that inhibits growth of the organism.

Turning to “KNLRRIIRKIIHIIKKYGPTILRIIRIIG [OV, SMAP-29 derivative]”, the “% Helical (SDS)” value in data set [1] (ref [17]) is 86% [17].

Turning to “GGHRRWKIVVIRWRR-NH2 [Sub5-01, ATCUN derivative of Sub5, previously characterized by the authors]”, the “MICA/MICB, concentration with no growth when dosed separately” value (from here on “MICA/MICB, concentration with no growth”) in the data set with MRSA 43300 [2] (replicate 1), in the data set with MRSA 43300 [2] (replicate 2), in the data set with MRSA 43300 [2] (replicate 3), in the data set on E. coli 25922 [3] (setting [9]), in the data set on E. coli 25922 [3] (setting [10]) and with E. coli 25922 [3] (setting [11]) was 4 µM each time. Moreover, the “MICA/MICB, concentration with no growth” value was 8 µM in the data set on E. coli 25922 [6] (replicate 1); 8 µM in the data set on E. coli 25922 [6] (replicate 2); 8 µM in the data set with E. coli 25922 [6] (replicate 3); 16 µM in the data set with MRSA 43300 [7] (setting [9]); 16 µM with MRSA 43300 [7] (setting [10]); 16 µM in the data set on MRSA 43300 [7] (setting [11]). Also, the “MICA/MICB, concentration with no growth” value in the data set with A. baumannii BAA747 [8] (replicate 1) is reported as 1 µM; in the data set on A. baumannii BAA747 [8] (replicate 2), 2 µM; in the data set on A. baumannii BAA747 [8] (replicate 3), 1 µM. The MIC is 1 µM in the data set with A. baumannii BAA747 [4] (setting [12]); 0.4 µM in the data set on E. faecium 700221 (VRE) (setting [12]); 2.7 µM with E. coli 25922 [5] (setting [12]); 1 µM with S. aureus 43300 (MRSA) (setting [12]); 2 µM in the data set with K. pneumoniae 700603 (setting [12]); 2 µM in the data set on P. aeruginosa 27583 (setting [13]).

Consider “GGHIRRIIRKIIHIIKKGGC-NH2 [Cu-4, ATCUN-OV3 derivative from the authors' earlier work]”, for which the “% Helical (SDS)” value in data set [1] (ref [8]) is 64% [8]. Further, the MIC with A. baumannii BAA747 [4] (setting [14]) is given as 10.7 µM; with E. faecium 700221 (VRE) (setting [14]) it was 3.3 µM; with E. coli 25922 [5] (setting [14]), 1.3 µM; in the data set with S. aureus 43300 (MRSA) (setting [14]), 1.5 µM; with K. pneumoniae 700603 (setting [14]), 8 µM; with P. aeruginosa 27583 (setting [15]) it was 4 µM.

With “IRRIIRKIIHIIKK-NH2 [OV3, SMAP-29 derivative, parental peptide of Cu-1 to Cu-4]”, the “% Helical (SDS)” value in data set [1] (ref [8]) was 38% [8]. Further, the MIC in the data set on A. baumannii BAA747 [4] (setting [14]) is listed as 1 µM; with E. faecium 700221 (VRE) (setting [14]), 16 µM; in the data set with E. coli 25922 [5] (setting [14]) it was above 16 µM; with S. aureus 43300 (MRSA) (setting [14]), above 16 µM; in the data set with K. pneumoniae 700603 (setting [14]), above 16 µM; in the data set on P. aeruginosa 27583 (setting [15]) it was 16 µM.

In the case of “GGHGIRRIIRKIIHIKK-NH2 [Cu-1, ATCUN-OV3 derivative from the authors' earlier work]”, the “% Helical (SDS)” value in [1] (ref [8]) was 14% [8]. The MIC with A. baumannii BAA747 [4] (setting [14]) is given as 2.7 µM; with E. faecium 700221 (VRE) (setting [14]) it was 16 µM; in the data set on E. coli 25922 [5] (setting [14]), above 16 µM; with S. aureus 43300 (MRSA) (setting [14]), 16 µM; with K. pneumoniae 700603 (setting [14]) it was 16 µM; with P. aeruginosa 27583 (setting [15]) it was above 16 µM.

Consider “RRWKIVVIRWRR-NH2 [Sub5, bactenecin derivative]”, for which the “MICA/MICB, concentration with no growth” value is given as 4 µM in the data set on MRSA 43300 [2] (replicate 1); 4 µM in the data set with MRSA 43300 [2] (replicate 2); 4 µM with MRSA 43300 [2] (replicate 3); 4 µM in the data set with E. coli 25922 [3] (setting [9]); 2 µM with E. coli 25922 [3] (setting [10]); 4 µM in the data set with E. coli 25922 [3] (setting [11]). For the same substance, the “MICA/MICB, concentration with no growth” value with E. coli 25922 [6] (replicate 1) is given as 8 µM; in the data set with E. coli 25922 [6] (replicate 2), 8 µM; in the data set on E. coli 25922 [6] (replicate 3), 8 µM; in the data set on MRSA 43300 [7] (setting [9]) it was 1 µM; with MRSA 43300 [7] (setting [10]), 2 µM; in the data set on MRSA 43300 [7] (setting [11]), 2 µM. In addition, the “MICA/MICB, concentration with no growth” value in the data set on A. baumannii BAA747 [8] (replicate 1), in the data set on A. baumannii BAA747 [8] (replicate 2) and with A. baumannii BAA747 [8] (replicate 3) was 2 µM in each case. The MIC was 0.8 µM in the data set on A. baumannii BAA747 [4] (setting [12]); 0.5 µM in the data set with E. faecium 700221 (VRE) (setting [12]); 3.3 µM with E. coli 25922 [5] (setting [12]); 2 µM with S. aureus 43300 (MRSA) (setting [12]); 1.7 µM in the data set with K. pneumoniae 700603 (setting [12]); 4 µM in the data set on P. aeruginosa 27583 (setting [13]).

As to “GGHGIRRIIRKIIHIIKKGGC-NH2 [Cu-2, ATCUN-OV3 derivative from the authors' earlier work]”, in data set [1] (ref [8]), the “% Helical (SDS)” value was 56% [8]. In addition, the MIC in the data set with A. baumannii BAA747 [4] (setting [14]) was 9.3 µM; in the data set with E. faecium 700221 (VRE) (setting [14]), 8 µM; in the data set with E. coli 25922 [5] (setting [14]), 3 µM; in the data set on S. aureus 43300 (MRSA) (setting [14]), 4 µM; in the data set with K. pneumoniae 700603 (setting [14]) it was above 16 µM; in the data set with P. aeruginosa 27583 (setting [15]) it was 12 µM.

For “GGHIRRIIRKIIHIIKK-NH2 [Cu-3, ATCUN-OV3 derivative from the authors' earlier work]”, the “% Helical (SDS)” value in data set [1] (ref [8]) is 35% [8]. Moreover, the MIC is reported as 5.3 µM with A. baumannii BAA747 [4] (setting [14]); 8 µM in the data set with E. faecium 700221 (VRE) (setting [14]); above 16 µM in the data set on E. coli 25922 [5] (setting [14]); 16 µM in the data set with S. aureus 43300 (MRSA) (setting [14]); 16 µM with K. pneumoniae 700603 (setting [14]); above 16 µM in the data set on P. aeruginosa 27583 (setting [15]).
